Laboratory results from a melting point compilation (Tetko et al.; mined from patent text by program, amines drawn as free bases though some values may be those of a salt).
Residues, ends and D or L forms follow the SMILES beside them.

| melting point | Structure (SMILES) |
| --- | --- |
| 74 to 77 °C | CC(=O)NC1CCN(CCCCl)CC1 |
| 59 to 62 °C | CCCCN(Cc1ccccc1)C(=O)Nc1cccc(Cl)c1O |
| 101 to 102 °C | Cc1c(N)c(C)c2c(c1-c1ccccc1)OCC2c1ccc(C(C)C)cc1 (stereo not given) |
| 150 °C | CCOC(=O)c1c2ccc(CC(=O)NOC(=O)NCCCCN)ccc-2c(C(=O)OCC)c1N |
| 149 to 150 °C | CC(=O)N1CCC2(CC1)Cc1cc([N+](=O)[O-])ccc1O2 |
| 51 to 53 °C | CCCCCCCC(=O)c1c(C(=O)CCCCCCC)c(-c2ccccc2)n(-c2ccc(C)cc2)c1-c1ccccc1 |
| 180 to 183 °C | CC(C)c1cccc(C(C)C)c1NC(=O)C(c1ccccc1)n1nnc(C(c2ccccc2)c2ccccc2)n1 (stereo not given) |
| 204 to 206 °C | COc1ccc2nc(COc3ccc(CC(C)C(N)=S)cc3)n(C)c2c1 (stereo not given) |
| 91 to 94 °C | CC(F)(C(=O)O)c1ccc(OS(=O)(=O)C(F)(F)F)cc1 (stereo not given) |
| 79 to 81 °C | CCOC(=O)C1=C(C)NC(C)=C(C(=O)OCCN2CCN(C(c3ccc(C)cc3)c3ccc(C)cc3)CC2)C1c1cccc(Cl)c1 (stereo not given) |
| 180 to 181 °C | COc1cc(Nc2nccc(-c3sc(CO)nc3C)n2)ccc1N1CCOCC1 |
| 198 to 200 °C | COc1ccc(-c2c(C(=O)O)[nH]c3cc(OC)c(OC)cc23)cc1OC |
| 174 to 175 °C | O=C(O)c1cc2c(s1)C(=O)CCC2 |
| 172 to 173 °C | CC(=O)Nc1ccccc1CS(=O)c1nccn1-c1ccccn1 (stereo not given) |
| 224 °C | O=C(Nc1ccc2c(c1)C(=O)c1cc(NC(=O)c3ccccc3)ccc1C2=O)c1ccccc1 |
| 86 to 87 °C | c1csc(-c2nc(COc3ccc(CCCn4ccnc4)cn3)co2)c1 |
| 133 to 134 °C | COc1ccc(OC(=O)N2CCCC2=O)cc1 |
| 55 to 57 °C | CSC(SC)=C(C#N)C(=O)N1CCOCC1 |
| 186 to 189 °C | CCc1cccc(CC)c1NC(=O)c1c(-c2ccccc2)oc(C)cc1=O |
| 95 to 102 °C | CCOC(=O)[C@@H](CCC(=O)N1c2ccccc2C[C@H]1C(=O)OCC)NC(=O)[C@@H](N)CCCCNSc1ncccc1[N+](=O)[O-] |
| 135 to 137 °C | Cc1noc(NS(=O)(=O)C23CSc4cccc(c42)OCO3)c1C (stereo not given) |
| 178 to 180 °C | NC(=O)Cc1cccc(C(=O)c2ccccc2)c1N |
| 134 to 135 °C | CCCCCC(CC(=O)Nc1cc(C(N)=O)ccc1C(C)(C)C)c1ccc(OCCOC)cc1OC (stereo not given) |

| melting point | Structure (SMILES) |
| --- | --- |
| 288 to 290 °C | O=C1c2cc(Br)ccc2-n2c1nc1ccccc1c2=O |
| 171 to 173 °C | N#Cc1ccc(N2CCC(=O)CC2)nc1 |
| 135 °C | CN(CCCN)S(=O)(=O)CCC(F)(F)C(F)(F)C(F)(F)C(F)(F)C(F)(F)C(F)(F)F |
| 195 to 198 °C | O=C(CCNC(=O)OCc1ccccc1)NC1OC(C(=O)O)CC1O (stereo not given) |
| 65 to 68 °C | CC(C)(C)OC(=O)C(CCCCNC(=O)c1ccc(Cl)c(S(N)(=O)=O)c1)NC1Cc2ccccc2C1 (stereo not given) |
| 170 to 171 °C | COc1ccc(C2(C#Cc3cnc(NC(C)=O)nc3)CCC(=O)CC2)cc1OC1CCCC1 |
| 156 to 160 °C | CCOCc1nc2c(N)nc(C)cc2n1CCCCNC(=O)N1CCOCC1 |
| 106 to 109 °C | CC(C)[C@@H](CO)Nc1nc(Nc2cccc(NS(C)(=O)=O)c2)nc2[nH]ccc12 |
| 210 °C | Cc1csc2nc(-n3cccn3)nc(NCc3ccc4c(c3)OCO4)c12 |
| 108 to 112 °C | COc1ccc(OCc2cn(C34CC5CC(CC(C5)C3)C4)nn2)cc1OC |
| 81 °C | CC(C)(C)c1ccc(O)c(C=O)c1 |
| 118 to 120 °C | CCN(CC)CCNC(=O)c1cc(Cl)c(N)cc1OCCSC |
| 118 °C | CCC1(CC)Cc2cc(OC)c(Cl)c(Cl)c2C1=O |
| 83 to 84.5 °C | O=[N+]([O-])c1cc(Cl)c(OCc2ccccc2-c2ccccc2)c(Cl)c1 |
| 185 to 187 °C | CNC(=O)C1(CCC#N)c2ccccc2-c2ccccc21 |
| 178 to 179 °C | O=c1oc(-c2ccc(OCc3cccnc3)cc2)cc(O)c1SCCc1ccccc1 |
| 55 °C | Cc1nc(Br)n(COCc2ccccc2)c1Sc1ccccc1 |
| 140 to 141 °C | CCOC(=O)c1csc(NC(c2ccccc2)(c2ccccc2)c2ccccc2)n1 |
| 146 to 148 °C | COc1cc(OC)nc(C2(Cl)OC(=O)c3ncccc32)n1 (stereo not given) |
| 220 to 222 °C | CCCCc1c(Cc2ccc(-c3ccccc3C(=O)O)cc2)c(=O)nc2n1CC(=O)N2 |
| 75 to 76 °C | c1csc(-c2cnc(COc3ccc(CCCn4ccnc4)cc3)o2)c1 |
| 151 °C | OC(CN1CCN(C(c2ccccc2)c2ccccc2)CC1)c1ccc(OCc2ccccc2)cc1OCc1ccccc1 (stereo not given) |
| 79.8 to 81.5 °C | COc1cc(C=O)c([N+](=O)[O-])cc1OCCCCCCOC(C)=O |

| melting point | Structure (SMILES) |
| --- | --- |
| 114 to 115 °C | O=C(O)CCc1cn(Cc2ccc(OCc3csc(-c4ccco4)n3)cc2)cc1-c1ccccc1 |
| 130 °C | COc1cccc(Oc2cccc(NC(=O)c3ccn4c3CSC4c3cccnc3)c2)c1 (stereo not given) |
| 113 to 114 °C | Cn1c(C(F)(F)F)ccc(-c2cc(NS(C)(=O)=O)c(Cl)cc2F)c1=O |
| 175 to 180 °C | O=C(O)Cc1cn(C(=O)c2cncs2)c2ccc(Cl)cc12 |
| 57 to 59 °C | COc1ccccc1-c1cnn2ccc(N3CCN(C(=O)OC(C)C)CC3)nc12 |
| 153 to 155 °C | CCc1c(-c2ccc(OC)cc2)c2c(C(=O)OC)c(C(=O)OC)c3cc(OC)cc1n32 |
| > 100 °C | CCCCc1nn2cc(CC)nc2n1Cc1ccc(-c2ccccc2-c2nnn[nH]2)cc1 |
| 173 to 176 °C | O=c1n(CCCCN2CCC(n3c(=O)[nH]c4ccccc43)CC2)nc2n1-c1ccccc1OC2 |
| 187 °C | CCOC(=O)c1cc(NCc2ccccc2)c(Nc2ccc(Cl)cc2)c(S(N)(=O)=O)c1 |
| 65 to 66 °C | COC(=O)C1=CCCN(C2CCc3ccc(OC)cc3C2)C1 (stereo not given) |
| 318 to 320 °C | NS(=O)(=O)c1cccc(NC(=O)c2cnn3ccc(-c4ccc(C(F)(F)F)cc4)nc23)c1 |
| 208 to 211 °C | CS(=O)c1nnc2c(=O)c3ccccc3ccn12 (stereo not given) |
| 185 to 186 °C | CC(=O)NC(C)C(=O)NC(C)C(=O)NC(CC(C)C)C(=O)O (stereo not drawn) (Ac-Ala-Ala-Leu-OH; configuration not given here) |
| 121 to 123 °C | CCn1c(COCc2ccccc2)nc(C(C)C)c1Sc1cccc([N+](=O)[O-])c1 |
| 37 to 39 °C | O=C(CCCCC1CCSS1)n1ccnc1 (stereo not given) |
| 202 to 207 °C | O=C(NC1CCCC1)NS(=O)(=O)c1cccc(Cl)c1Cl |
| 205 to 206 °C | CCOC(=O)N1CCC(n2cnc(-c3ccc(F)cc3)c2-c2ccnc(NC)n2)CC1 |
| 107 to 108 °C | COc1cc(C(C)O)c([N+](=O)[O-])cc1OC (stereo not given) |
| 202 °C | O=c1cc(-c2cc3ccccc3cc2O)oc2ccccc12 |
| 233 to 235 °C | CS(=O)(=O)c1cccc(-c2cc(N3CCOCC3)cc(Nc3ccc(OC(F)(F)F)cc3)n2)c1 |
| 88 to 90 °C | O=C(c1ccccc1)c1ccc(OCc2cccnc2)cc1O |
| 184 to 186 °C | COc1ccc(S(=O)(=O)N2CCc3cccc(-c4ccc(N)cc4)c32)cc1 |
| 156 to 159 °C | COc1cc(N(C(=O)C[C@H](N)C(=O)O)S(=O)(=O)c2ccc3c(ccn3C)c2)cc(OC)c1OC |

| melting point | Structure (SMILES) |
| --- | --- |
| 130 to 131 °C | O=C(O)CCc1ccc(OCCCCc2cc(-c3ccc(C(F)(F)F)cc3)no2)cc1 |
| 150 to 159 °C | CCNC(=O)C=CC(C)=CC=C(C)c1ccc2c(c1)C(C)(C)CCC2(C)C |
| 164 to 166 °C | S=C(Nc1ccc(Cl)cc1)NC1C2CC3C(C2)C31 (stereo not given) |
| 144 to 146 °C | COc1ccc(-c2nc3cc(Cl)cc(C#CCN(OC(=O)OC(C)(C)C)C(=O)OC(C)(C)C)c3o2)cc1OC1CCCC1 |
| 102 to 104 °C | CCc1cccc(C)c1S(=O)(=O)c1nn(C(=O)N(CC)CC)cc1OC |
| 79 to 80 °C | CC1(C(=O)NCCc2cccs2)CCCCC1 |
| 138 to 140 °C | COc1cc(NC2CC3CCC(C2)N3Cc2ccccc2)ccc1C(N)=O (stereo not given) |
| 206 to 210 °C | Cc1cc(I)ccc1Nc1c(C(=O)O)cc(F)c(F)c1F |
| 254 to 258 °C | CCC1Cn2c(ncc(-c3nnn[nH]3)c2=O)-c2ccccc21 (stereo not given) |
| 85 °C | CCCCOc1ccc2ccccc2c1-c1c(OCCCC)ccc2ccccc12 |
| 92 to 93 °C | CCOc1ccc(C2=NN(C3CCCCCC3)C(=O)[C@H]3CC=CC[C@@H]23)cc1OCC (relative stereo) |
| 123 to 124 °C | CCOC(=O)C(Oc1nc(OC)cc(OC)n1)C(C)(C)c1ccccc1 (stereo not given) |
| 198 to 200 °C | Cc1c[nH]c2c1C(=O)CC(c1ccccc1F)C2 (stereo not given) |
| 122 to 124 °C | O=C(c1ccc(F)c(F)c1Nc1ccc(I)cc1F)N1CC(O)CO1 (stereo not given) |
| 96 °C | Cc1ccc(Sc2ncnc3ccccc23)cc1 |
| 140 °C | CS(=O)(=O)c1ccc(-c2nn(CC3CC3)c(=O)cc2-c2ccc(Cl)cc2)cc1 |
| 158 to 161 °C | O=C(O)COc1ccc(OC(F)(F)F)cc1C(=S)NCc1cccc([N+](=O)[O-])c1 |
| 162 °C | N#Cc1c(N2CCNCC2)c2cc(F)ccc2n(Cc2ccccc2)c1=O |
| 138 to 139 °C | O=C(O)CCCOc1ccc(OCCC(c2ccccc2)(c2ccccc2)c2ccccc2)cc1 |
| 40 to 44 °C | Cc1cc([N+](=O)[O-])c(Cl)cc1Cl |
| 240 to 242 °C | COc1ccc2c(c1)c(-c1cc3cc(-c4ccccc4)cnc3[nH]1)cn2C |
| 204 to 205 °C | COc1cc2c(cc1[N+](=O)[O-])NC(=O)CN(C(=O)C(F)(F)F)C2 |
| 96 to 98 °C | O=C1CC(c2ccc(Cl)cc2)Oc2ccccc21 (stereo not given) |

| Structure (SMILES) | melting point |
| --- | --- |
| C=C(CC1(CC(=C)C(=O)OC(C)(C)C)C(=O)N(C)C(=O)N(C)C1=O)C(=O)OC(C)(C)C | 90 to 91 °C |
| Nc1ccc(Cl)cc1C(=O)c1ccc(Cl)cc1 | 106 to 107 °C |
| CN(C)C(=O)Oc1c(N2CCCC2)c(=O)n(-c2ccccc2)c2ncccc12 | 218 to 220 °C |
